# Reference: patent US12161722B2, “Bifunctional heterocyclic compound having BTK degradation function via ubiquitin proteasome pathway, and use thereof” (KOREA RESEARCH INSTITUTE OF CHEMICAL TECHNOLOGY, priority 2021, dated 2024)
# Biological target: T1, WT BTK protein (Homo sapiens, UniProt Q06187)
# T1 construct: measured for intracellular BTK protein levels by Western blotting; endogenous in cells; host or cells: TMD-8 or RAMOS cells
# Assay: BTK protein degradation assay (Western blotting), WT BTK
# Format: cell-based
# Details: concentration range accounting for 50% degradation of WT BTK protein, TMD-8 or RAMOS cells, 24 hours
# Method in brief: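 BTK levels were read by Western blotting (GAPDH and β-actin normalisers) in RIPA lysates of TMD-8 cells exposed to compounds for 24 h at 1×10^6 cells/mL. Results scored in ranges of the concentration producing 50% loss of WT BTK.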
# T1 sequence (Q06187 whole entry): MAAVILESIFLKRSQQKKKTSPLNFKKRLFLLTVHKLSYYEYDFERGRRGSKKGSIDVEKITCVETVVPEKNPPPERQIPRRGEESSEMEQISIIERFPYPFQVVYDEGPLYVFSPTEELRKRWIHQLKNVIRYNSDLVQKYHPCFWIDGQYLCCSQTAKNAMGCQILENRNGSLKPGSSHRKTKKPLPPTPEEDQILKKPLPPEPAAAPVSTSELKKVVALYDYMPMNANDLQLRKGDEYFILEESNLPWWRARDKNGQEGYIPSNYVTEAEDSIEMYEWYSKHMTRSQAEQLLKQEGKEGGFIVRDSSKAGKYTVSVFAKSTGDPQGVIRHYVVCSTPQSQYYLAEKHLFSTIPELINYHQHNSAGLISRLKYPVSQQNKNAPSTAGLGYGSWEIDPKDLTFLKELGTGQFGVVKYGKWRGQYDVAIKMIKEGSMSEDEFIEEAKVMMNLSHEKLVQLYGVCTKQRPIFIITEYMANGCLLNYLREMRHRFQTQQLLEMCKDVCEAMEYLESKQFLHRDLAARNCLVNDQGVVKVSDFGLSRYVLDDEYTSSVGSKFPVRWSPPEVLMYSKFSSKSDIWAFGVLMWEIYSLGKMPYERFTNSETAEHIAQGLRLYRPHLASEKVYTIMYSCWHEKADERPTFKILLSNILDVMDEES
row,Structure (SMILES),DC50
1,"Cc1cccc(C)c1Nc1nn(C)c2nc(Nc3ccc(N4CCN(CC5CCN(c6ccc7c(c6)C(=O)N(C6CCC(=O)NC6=O)C7=O)CC5)CC4)cn3)ncc12 (stereo not drawn) [Compound 162, 5-(4-((4-(6-((3-((2,6-Dimethylphenyl)amino)-1-methyl-1H-pyrazolo[3,4-d]pyrimidin-6-yl)amino)pyridin-3-yl)piperazin-1-yl)methyl)piperidin-1-yl)-2-(2,6-dioxopiperidin-3-yl)isoindoline-1,3-dione]",10 to 1000 nM
2,"Cc1cccc(C)c1Nc1nn(C)c2nc(Nc3ccc(N4CCN(CC5CCN(c6ccc7c(c6)C(=O)N(C6CCC(=O)NC6=O)C7=O)CC5)CC4)cc3)ncc12 (stereo not drawn) [Compound 163, 5-(4-((4-(4-((3-((2,6-Dimethylphenyl)amino)-1-methyl-1H-pyrazolo[3,4-d]pyrimidin-6-yl)amino)phenyl)piperazin-1-yl)methyl)piperidin-1-yl)-2-(2,6-dioxopiperidin-3-yl)isoindoline-1,3-dione]",0.1 to 10 nM
3,"Cc1cccc(C)c1Nc1nn(C)c2nc(Nc3ccc(C4CCN(CC5CCN(c6ccc7c(c6)C(=O)N(C6CCC(=O)NC6=O)C7=O)CC5)CC4)nc3)ncc12 (stereo not drawn) [Compound 164, 5-(4-((4-(5-((3-((2,6-Dimethylphenyl)amino)-1-methyl-1H-pyrazolo[3,4-d]pyrimidin-6-yl)amino)pyridin-2-yl)piperidin-1-yl)methyl)piperidin-1-yl)-2-(2,6-dioxopiperidin-3-yl)isoindoline-1,3-dione]",0.1 to 10 nM
4,"Cc1cccc(C)c1Nc1nn(C)c2nc(Nc3ccc(C4CCN(CC5CCN(c6ccc7c(c6)C(=O)N(C6CCC(=O)NC6=O)C7=O)CC5)CC4)cc3)ncc12 (stereo not drawn) [Compound 165, 5-(4-((4-(4-((3-((2,6-Dimethylphenyl)amino)-1-methyl-1H-pyrazolo[3,4-d]pyrimidin-6-yl)amino)phenyl)piperidin-1-yl)methyl)piperidin-1-yl)-2-(2,6-dioxopiperidin-3-yl)isoindoline-1,3-dione]",0.1 to 10 nM
5,"Cc1cccc(C)c1Nc1nn(C)c2nc(Nc3ccc(C4CCN(C[C@H]5CCN(c6ccc7c(c6)C(=O)N(C6CCC(=O)NC6=O)C7=O)C5)CC4)cc3)ncc12 (stereo partly drawn) [Compound 166, 5-((R)-3-((4-(4-((3-((2,6-Dimethylphenyl)amino)-1-methyl-1H-pyrazolo[3,4-d]pyrimidin-6-yl)amino)phenyl)piperidin-1-yl)methyl)pyrrolidin-1-yl)-2-(2,6-dioxopiperidin-3-yl)isoindoline-1,3-dione]",0.1 to 10 nM
6,"Cc1cccc(C)c1Nc1nn(C)c2nc(Nc3ccc(C4CCN(C[C@@H]5CCN(c6ccc7c(c6)C(=O)N(C6CCC(=O)NC6=O)C7=O)C5)CC4)cc3)ncc12 (stereo partly drawn) [Compound 167, 5-((S)-3-((4-(4-((3-((2,6-Dimethylphenyl)amino)-1-methyl-1H-pyrazolo[3,4-d]pyrimidin-6-yl)amino)phenyl)piperidin-1-yl)methyl)pyrrolidin-1-yl)-2-(2,6-dioxopiperidin-3-yl)isoindoline-1,3-dione]",0.1 to 10 nM
7,"Cc1cccc(C)c1Nc1nn(C)c2nc(Nc3ccc(C4CCN(C5CCN(c6ccc7c(c6)C(=O)N(C6CCC(=O)NC6=O)C7=O)CC5)CC4)cc3)ncc12 (stereo not drawn) [Compound 168, 5-(4-(4-((3-((2,6-Dimethylphenyl)amino)-1-methyl-1H-pyrazolo[3,4-d]pyrimidin-6-yl)amino)phenyl)-[1,4′-bipyridin]-1′-yl)-2-(2,6-dioxopiperidin-3-yl)isoindoline-1,3-dione]",0.1 to 10 nM

# Further lines, results first:
row,DC50,Structure (SMILES)
1,0.1 to 10 nM,"Cc1cccc(C)c1Nc1nn(C)c2nc(Nc3ccc(N4CCN(C[C@H]5CCN(c6ccc7c(c6)C(=O)N(C6CCC(=O)NC6=O)C7=O)C5)CC4)nc3)ncc12 (stereo partly drawn) [Compound 154, 5-((R)-3-((4-(5-((3-((2,6-Dimethylphenyl)amino)-1-methyl-1H-pyrazolo[3,4-d]pyrimidin-6-yl)amino)pyridin-2-yl)piperazin-1-yl)methyl)pyrrolidin-1-yl)-2-(2,6-dioxopiperidin-3-yl)isoindoline-1,3-dione]"
2,0.1 to 10 nM,"Cc1cccc(C)c1Nc1nn(C)c2nc(Nc3ccc(N4CCN(C[C@@H]5CCN(c6ccc7c(c6)C(=O)N(C6CCC(=O)NC6=O)C7=O)C5)CC4)nc3)ncc12 (stereo partly drawn) [Compound 155, 5-((S)-3-((4-(5-((3-((2,6-dimethylphenyl)amino)-1-methyl-1H-pyrazolo[3,4-d]pyrimidin-6-yl)amino)pyridin-2-yl)piperazin-1-yl)methyl)pyrrolidin-1-yl)-2-(2,6-dioxopiperidin-3-yl)isoindoline-1,3-dione]"
3,0.1 to 10 nM,"Cc1cccc(C)c1Nc1nn(C)c2nc(Nc3ccc(N4CCN(C5CCN(c6ccc7c(c6)C(=O)N(C6CCC(=O)NC6=O)C7=O)CC5)CC4)nc3)ncc12 (stereo not drawn) [Compound 156, 5-(4-(4-(5-((3-((2,6-dimethylphenyl)amino)-1-methyl-1H-pyrazolo[3,4-d]pyrimidin-6-yl)amino)pyridin-2-yl)piperazin-1-yl)piperidin-1-yl)-2-(2,6-dioxopiperidin-3-yl)isoindoline-1,3-dione]"
4,0.1 to 10 nM,"Cc1cccc(C)c1Nc1nn(C)c2nc(Nc3ccc(N4CCN(CCC5CCN(c6ccc7c(c6)C(=O)N(C6CCC(=O)NC6=O)C7=O)CC5)CC4)nc3)ncc12 (stereo not drawn) [Compound 157, 5-(4-(2-(4-(5-((3-((2,6-dimethylphenyl)amino)-1-methyl-1H-pyrazolo[3,4-d]pyrimidin-6-yl)amino)pyridin-2-yl)piperazin-1-yl)ethyl)piperidin-1-yl)-2-(2,6-dioxopiperidin-3-yl)isoindoline-1,3-dione]"
5,0.1 to 10 nM,"Cc1cccc(C)c1Nc1nn(C)c2nc(Nc3ccc(N4CCN(C5CN(c6ccc7c(c6)C(=O)N(C6CCC(=O)NC6=O)C7=O)C5)CC4)nc3)ncc12 (stereo not drawn) [Compound 158, 5-(3-(4-(5-((3-((2,6-Dimethylphenyl)amino)-1-methyl-1H-pyrazolo[3,4-d]pyrimidin-6-yl)amino)pyridin-2-yl)piperazin-1-yl)azetidin-1-yl)-2-(2,6-dioxopiperidin-3-yl)isoindoline-1,3-dione]"
6,0.1 to 10 nM,"Cc1cccc(C)c1Nc1nn(C)c2nc(Nc3ccc(N4CCN(CC5CN(c6ccc7c(c6)C(=O)N(C6CCC(=O)NC6=O)C7=O)C5)CC4)nc3)ncc12 (stereo not drawn) [Compound 159, 5-(3-((4-(5-((3-((2,6-dimethylphenyl)amino)-1-methyl-1H-pyrazolo[3,4-d]pyrimidin-6-yl)amino)pyridin-2-yl)piperazin-1-yl)methyl)azetidin-1-yl)-2-(2,6-dioxopiperidin-3-yl)isoindoline-1,3-dione]"
7,0.1 to 10 nM,"Cc1cccc(C)c1Nc1nn(C)c2nc(Nc3ccc(N4CCN(C[C@H]5CCCN(c6ccc7c(c6)C(=O)N(C6CCC(=O)NC6=O)C7=O)C5)CC4)nc3)ncc12 (stereo partly drawn) [Compound 160, 5-((R)-3-((4-(5-((3-((2,6-Dimethylphenyl)amino)-1-methyl-1H-pyrazolo[3,4-d]pyrimidin-6-yl)amino)pyridin-2-yl)piperazin-1-yl)methyl)piperidin-1-yl)-2-(2,6-dioxopiperidin-3-yl)isoindoline-1,3-dione]"
8,0.1 to 10 nM,"Cc1cccc(C)c1Nc1nn(C)c2nc(Nc3ccc(N4CCN(C[C@@H]5CCCN(c6ccc7c(c6)C(=O)N(C6CCC(=O)NC6=O)C7=O)C5)CC4)nc3)ncc12 (stereo partly drawn) [Compound 161, 5-((S)-3-((4-(5-((3-((2,6-Dimethylphenyl)amino)-1-methyl-1H-pyrazolo[3,4-d]pyrimidin-6-yl)amino)pyridin-2-yl)piperazin-1-yl)methyl)piperidin-1-yl)-2-(2,6-dioxopiperidin-3-yl)isoindoline-1,3-dione]"
